Test system: FMDV of O-type
Conditions: guinea pig, in vivo

RNase: recombinant / wild-type human RNase I (Examples 22, 30, 31)
resistance to FMD on repeated infection: resistant to FMD following subsequent repeated infection

Reference: patent US10335372B2, “Compositions with modified nucleases targeted to viral nucleic acids and methods of use for prevention and treatment of viral diseases” (priority 2004, dated 2019)
